Assays:
Type in all cases: functional, cell-based
EVSA-T = assay: cells; details: Homo sapiens;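 note: growth inhibition of EVSA-T cells, read out with a cell viability assay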
Description: SANGER: Inhibition of human EVSA-T cell growth in a cell viability assay.

GDM-1 = assay: cells; details: Homo sapiens;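 note: cell viability readout used to measure growth inhibition of human GDM-1 cells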
Description: SANGER: Inhibition of human GDM-1 cell growth in a cell viability assay.

JIYOYE = assay: cells; details: Homo sapiens
Description: SANGER: Inhibition of human JiyoyeP-2003 cell growth in a cell viability assay.

K052 = assay: cells; details: Homo sapiens;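 note: Read-out from a cell viability assay, IC50 reflecting suppression of K052 cell growth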
Description: SANGER: Inhibition of human K052 cell growth in a cell viability assay.

L-540 = assay: cells; details: Homo sapiens;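 note: growth inhibition of the human L-540 cell line, read out with a viability assay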
Description: SANGER: Inhibition of human L-540 cell growth in a cell viability assay.

LOUCY = assay: cells; details: Homo sapiens;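 note: growth inhibition of human LOUCY cells, read out with a cell viability assay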
Description: SANGER: Inhibition of human LOUCY cell growth in a cell viability assay.

NCCIT = assay: SANGER: Inhibition of human NCCIT cell growth in a cell viability assay.
NCI-H1522 = assay: cells; details: Homo sapiens;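 note: growth inhibition of NCI-H1522 cells, read out with a cell viability assay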
Description: SANGER: Inhibition of human NCI-H1522 cell growth in a cell viability assay.

NCI-H187 = assay: cells; details: Homo sapiens;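 note: growth inhibition of NCI-H187 cells, read out as cell viability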
Description: SANGER: Inhibition of human NCI-H187 cell growth in a cell viability assay.

NCI-H524 = assay: cells; details: Homo sapiens;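 note: growth inhibition of human NCI-H524 cells, read out through a cell viability assay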
Description: SANGER: Inhibition of human NCI-H524 cell growth in a cell viability assay.

SNU-16 = assay: cells; details: Homo sapiens;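 note: growth inhibition of human SNU-16 cells, determined with a cell viability readout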
Description: SANGER: Inhibition of human NCI-SNU-16 cell growth in a cell viability assay.

SCC-3 = assay: cells; details: Homo sapiens;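 note: cell viability assay measuring inhibition of SCC-3 cell growth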
Description: SANGER: Inhibition of human SCC-3 cell growth in a cell viability assay.

SNU-C1 = assay: cells; details: Homo sapiens;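 note: growth inhibition of SNU-C1 human cells, read out by a cell viability assay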
Description: SANGER: Inhibition of human SNU-C1 cell growth in a cell viability assay.

ST486 = assay: SANGER: Inhibition of human ST486 cell growth in a cell viability assay.
SUP-T1 = assay: cells; details: Homo sapiens;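 note: growth inhibition of human SUP-T1 cells, read out as cell viability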
Description: SANGER: Inhibition of human SUP-T1 cell growth in a cell viability assay.

BC1 cell line = assay: SANGER: Inhibition of human BC-1 cell growth in a cell viability assay.
BC-3 = assay: cells; details: Homo sapiens;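 note: cell viability assay measuring growth inhibition of human BC-3 cells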
Description: SANGER: Inhibition of human BC-3 cell growth in a cell viability assay.

D-566MG = assay: cells; details: Homo sapiens
DBTRG-05MG = assay: cells; details: Homo sapiens;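 note: cell viability assay measuring growth inhibition of human DBTRG-05MG cells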
Description: SANGER: Inhibition of human DBTRG-05MG cell growth in a cell viability assay.

Daoy = assay: cells; details: Homo sapiens;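 note: daoy cell growth inhibition, read out as cell viability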
Description: SANGER: Inhibition of human Daoy cell growth in a cell viability assay.

ECC10 = assay: cells; details: Homo sapiens;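 note: growth inhibition of ECC10 cells, read out by a cell viability assay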
Description: SANGER: Inhibition of human ECC10 cell growth in a cell viability assay.

GCT = assay: cells; details: Homo sapiens;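 note: GCT cell line proliferation inhibition, read out with a cell viability assay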
Description: SANGER: Inhibition of human GCT cell growth in a cell viability assay.

HCC1419 = assay: cells; details: Homo sapiens;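 note: growth inhibition of human HCC1419 cells, read out as cell viability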
Description: SANGER: Inhibition of human HCC1419 cell growth in a cell viability assay.

HGC-27 = assay: cells; details: Homo sapiens;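 note: growth inhibition of human HGC-27 cells, read out in a cell viability assay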
Description: SANGER: Inhibition of human HGC-27 cell growth in a cell viability assay.

HOP-92 = assay: cells; details: Homo sapiens;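 note: cell viability readout, with IC50 reflecting inhibition of HOP-92 cell growth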
Description: SANGER: Inhibition of human HOP-92 cell growth in a cell viability assay.

HSC-3 = assay: cells; details: Homo sapiens
Description: SANGER: Inhibition of human HSC-3 cell growth in a cell viability assay.

HT-3 = assay: cells; details: Homo sapiens;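 note: growth inhibition measured with a cell viability readout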
Description: SANGER: Inhibition of human HT-3 cell growth in a cell viability assay.

KU-19-19 = assay: cells; details: Homo sapiens
Description: SANGER: Inhibition of human KU-19-19 cell growth in a cell viability assay.

KYSE-410 = assay: cells; details: Homo sapiens;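 note: growth inhibition of KYSE-410 cells, measured through a cell viability readout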
Description: SANGER: Inhibition of human KYSE-410 cell growth in a cell viability assay.

KYSE-510 = assay: cells; details: Homo sapiens;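 note: cell viability readout used to measure how strongly growth of the cell line is suppressed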
Description: SANGER: Inhibition of human KYSE-510 cell growth in a cell viability assay.

KYSE-520 cell line = assay: cells; details: Homo sapiens;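 note: growth inhibition of human KYSE-520 cells, read out with a viability assay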
Description: SANGER: Inhibition of human KYSE-520 cell growth in a cell viability assay.

MC-IXC = assay: cells; details: Homo sapiens;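 note: growth inhibition of MC-IXC cells, read out with a cell viability assay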
Description: SANGER: Inhibition of human MC-IXC cell growth in a cell viability assay.

MG-63 = assay: cells; details: Homo sapiens;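 note: growth inhibition of human MG-63 cells, read out with a cell viability assay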
Description: SANGER: Inhibition of human MG-63 cell growth in a cell viability assay.

MKN-1 = assay: cells; details: Homo sapiens;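 note: growth inhibition of human MKN1 cells, read out by a cell viability measurement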
Description: SANGER: Inhibition of human MKN1 cell growth in a cell viability assay.

NBsusSR = assay: cells; details: Homo sapiens;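 note: growth inhibition of the human cell line, read out with a cell viability assay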
Description: SANGER: Inhibition of human NBsusSR cell growth in a cell viability assay.

NCI-H1993 = assay: cells; details: Homo sapiens;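 note: growth inhibition of the cancer cell line, assessed with a cell viability assay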
Description: SANGER: Inhibition of human NCI-H1993 cell growth in a cell viability assay.

NCI-H2009 = assay: cells; details: Homo sapiens;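 note: cell viability assay measuring inhibition of NCI-H2009 cell growth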
Description: SANGER: Inhibition of human NCI-H2009 cell growth in a cell viability assay.

NCI-H292 = assay: cells; details: Homo sapiens;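 note: growth inhibition of NCI-H292 cells, read out with a cell viability assay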
Description: SANGER: Inhibition of human NCI-H292 cell growth in a cell viability assay.

OE33 = assay: cells; details: Homo sapiens;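 note: growth inhibition of human OE33 cells, measured by a cell viability assay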
Description: SANGER: Inhibition of human OE33 cell growth in a cell viability assay.

SCC-4 = assay: cells; details: Homo sapiens;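 note: growth inhibition of human SCC-4 cells, read out as cell viability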
Description: SANGER: Inhibition of human SCC-4 cell growth in a cell viability assay.

SF-295 = assay: cells; details: Homo sapiens;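 note: growth inhibition of SF-295 cells, read out with a cell viability assay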
Description: SANGER: Inhibition of human SF295 cell growth in a cell viability assay.

SW1417 = assay: cells; details: Homo sapiens;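 note: growth inhibition of human SW1417 cells, read out with a cell viability assay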
Description: SANGER: Inhibition of human SW1417 cell growth in a cell viability assay.

SW48 = assay: cells; details: Homo sapiens;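 note: growth inhibition of SW48 cells, read out with a cell viability assay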
Description: SANGER: Inhibition of human SW48 cell growth in a cell viability assay.

SW780 = assay: cells; details: Homo sapiens;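 note: growth inhibition of the cells, read out with a cell viability assay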
Description: SANGER: Inhibition of human SW780 cell growth in a cell viability assay.

SAOS-2 = assay: cells; details: Homo sapiens;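 note: growth inhibition of human Saos-2 cells determined by a cell viability assay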
Description: SANGER: Inhibition of human Saos-2 cell growth in a cell viability assay.

T-24 = assay: cells; details: Homo sapiens;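 note: growth inhibition of T-24 cells, read out with a cell viability assay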
Description: SANGER: Inhibition of human T-24 cell growth in a cell viability assay.

639-V = assay: cells; details: Homo sapiens;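 note: growth inhibition of 639-V cells, read out with a cell viability assay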
Description: SANGER: Inhibition of human 639-V cell growth in a cell viability assay.

A2780 = assay: cells; details: Homo sapiens;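 note: growth inhibition of A2780 cells, read out with a cell viability assay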
Description: SANGER: Inhibition of human A2780 cell growth in a cell viability assay.

A-427 = assay: cells; details: Homo sapiens;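 note: growth inhibition of human A-427 cells, read out by a cell viability assay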
Description: SANGER: Inhibition of human A427 cell growth in a cell viability assay.

AN3-CA = assay: cells; details: Homo sapiens;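 note: growth inhibition of human AN3-CA cells measured by a cell viability assay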
Description: SANGER: Inhibition of human AN3-CA cell growth in a cell viability assay.

C32 = assay: cells; details: Homo sapiens;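 note: cell viability assay, with IC50 reflecting inhibition of C32 cell growth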
Description: SANGER: Inhibition of human C32 cell growth in a cell viability assay.

TYK-nu = assay: cells; details: Homo sapiens;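 note: growth inhibition of human TYK-nu cells, read out by a cell viability assay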
Description: SANGER: Inhibition of human TYK-nu cell growth in a cell viability assay.

U-118-MG = assay: cells; details: Homo sapiens
Description: SANGER: Inhibition of human U-118-MG cell growth in a cell viability assay.

VM-CUB-1 = assay: cells; details: Homo sapiens;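 note: cell viability assay measuring growth inhibition of the human VM-CUB-1 cell line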
Description: SANGER: Inhibition of human VM-CUB-1 cell growth in a cell viability assay.

YH-13 = assay: cells; details: Homo sapiens;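 note: cell viability readout of growth suppression in the human YH-13 cell line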
Description: SANGER: Inhibition of human YH-13 cell growth in a cell viability assay.

COLO-678 = assay: cells; details: Homo sapiens
Description: SANGER: Inhibition of human COLO-678 cell growth in a cell viability assay.

HCC1569 = assay: cells; details: Homo sapiens;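 note: growth inhibition of human HCC1569 cells, read out with a cell viability assay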
Description: SANGER: Inhibition of human HCC1569 cell growth in a cell viability assay.

HT55 = assay: cells; details: Homo sapiens;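 note: cell viability readout measuring growth inhibition of human HT55 cells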
Description: SANGER: Inhibition of human HT55 cell growth in a cell viability assay.

NCI-H520 = assay: cells; details: Homo sapiens;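 note: growth inhibition of NCI-H520 cells, measured by a cell viability assay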
Description: SANGER: Inhibition of human NCI-H520 cell growth in a cell viability assay.

SNU-387 = assay: cells; details: Homo sapiens
Description: SANGER: Inhibition of human SNU-387 cell growth in a cell viability assay.

CAL-72 = assay: cells; details: Homo sapiens
Description: SANGER: Inhibition of human CAL-72 cell growth in a cell viability assay.

Cc1nc(Nc2ncc(C(=O)Nc3c(C)cccc3Cl)s2)cc(N2CCN(CCO)CC2)n1 [DASATINIB]
IC50 (EVSA-T): > 1.28 µM
IC50 (GDM-1): > 1.28 µM
IC50 (JIYOYE): > 1.28 µM
IC50 (K052): > 1.28 µM
IC50 (L-540): > 1.28 µM
IC50 (LOUCY): > 1.28 µM
IC50 (NCCIT): > 1.28 µM
IC50 (NCI-H1522): > 1.28 µM
IC50 (NCI-H187): > 1.28 µM
IC50 (NCI-H524): > 1.28 µM
IC50 (SNU-16): > 1.28 µM
IC50 (SCC-3): > 1.28 µM
IC50 (SNU-C1): > 1.28 µM
IC50 (ST486): > 1.28 µM
IC50 (SUP-T1): > 1.28 µM
IC50 (BC1 cell line): > 1.28 µM
IC50 (BC-3): > 1.28 µM

CC[C@@]1(O)C(=O)OCc2c1cc1n(c2=O)Cc2cc3ccccc3nc2-1 [CAMPTOTHECIN]
IC50 (D-566MG): 0.000132 µM
IC50 (DBTRG-05MG): 0.0409 µM
IC50 (Daoy): 0.000481 µM
IC50 (ECC10): 0.00385 µM
IC50 (GCT): 0.00502 µM
IC50 (HCC1419): > 0.1 µM
IC50 (HGC-27): 0.00407 µM
IC50 (HOP-92): 0.00879 µM
IC50 (HSC-3): 0.00302 µM
IC50 (HT-3): 0.000212 µM
IC50 (KU-19-19): 0.022 µM
IC50 (KYSE-410): 0.0781 µM
IC50 (KYSE-510): 0.00675 µM
IC50 (KYSE-520 cell line): 0.0826 µM
IC50 (MC-IXC): 0.000513 µM
IC50 (MG-63): 0.00765 µM
IC50 (MKN-1): 0.0379 µM
IC50 (NBsusSR): 0.000194 µM
IC50 (NCI-H1993): > 0.1 µM
IC50 (NCI-H2009): 0.0681 µM
IC50 (NCI-H292): 0.00224 µM
IC50 (OE33): 0.0256 µM
IC50 (SCC-4): 0.0193 µM
IC50 (SF-295): 0.00791 µM
IC50 (SW1417): 0.0527 µM
IC50 (SW48): 0.00302 µM
IC50 (SW780): 0.0258 µM
IC50 (SAOS-2): 0.0178 µM
IC50 (T-24): 0.00161 µM
IC50 (639-V): 0.000171 µM
IC50 (A2780): 0.0029 µM
IC50 (A-427): 0.00425 µM
IC50 (AN3-CA): 0.034 µM
IC50 (C32): 0.0134 µM
IC50 (TYK-nu): 0.00494 µM
IC50 (U-118-MG): 0.019 µM
IC50 (VM-CUB-1): 0.00221 µM
IC50 (YH-13): 0.0116 µM
IC50 (COLO-678): > 0.1 µM

NC(=O)c1ncn([C@@H]2O[C@H](COP(=O)(O)O)[C@@H](O)[C@H]2O)c1N
IC50 (D-566MG): > 2000 µM
IC50 (DBTRG-05MG): 1290 µM
IC50 (Daoy): 1510 µM
IC50 (GCT): 1390 µM
IC50 (HCC1419): > 2000 µM
IC50 (HCC1569): 994 µM
IC50 (HGC-27): 1320 µM
IC50 (HOP-92): 1690 µM
IC50 (HSC-3): 259 µM
IC50 (HT-3): 472 µM
IC50 (HT55): > 2000 µM
IC50 (KU-19-19): > 2000 µM
IC50 (KYSE-410): > 2000 µM
IC50 (KYSE-510): 905 µM
IC50 (KYSE-520 cell line): 382 µM
IC50 (MC-IXC): 1780 µM
IC50 (MG-63): > 2000 µM
IC50 (MKN-1): > 2000 µM
IC50 (NBsusSR): 474 µM
IC50 (NCI-H2009): 1460 µM
IC50 (NCI-H292): > 2000 µM
IC50 (NCI-H520): 744 µM
IC50 (OE33): 1330 µM
IC50 (SCC-4): 1230 µM
IC50 (SNU-387): > 2000 µM
IC50 (SW1417): > 2000 µM
IC50 (SW48): 932 µM
IC50 (SW780): > 2000 µM
IC50 (SAOS-2): > 2000 µM
IC50 (T-24): > 2000 µM
IC50 (639-V): > 2000 µM
IC50 (A2780): 1860 µM
IC50 (A-427): > 2000 µM
IC50 (AN3-CA): > 2000 µM
IC50 (CAL-72): 321 µM
IC50 (TYK-nu): > 2000 µM
IC50 (U-118-MG): 1430 µM
IC50 (VM-CUB-1): 673 µM
IC50 (YH-13): > 2000 µM
IC50 (COLO-678): > 2000 µM

COc1cc(C)c(Sc2cnc(NC(=O)c3ccc(CNC(C)C(C)(C)C)cc3)s2)cc1C(=O)N1CCN(C(C)=O)CC1 (stereo not given)
IC50 (EVSA-T): > 10.2 µM
IC50 (GDM-1): > 10.2 µM
IC50 (JIYOYE): > 10.2 µM
IC50 (K052): > 10.2 µM
IC50 (L-540): > 10.2 µM
IC50 (LOUCY): > 10.2 µM
IC50 (NCCIT): > 10.2 µM
IC50 (NCI-H1522): > 10.2 µM
IC50 (NCI-H187): > 10.2 µM
IC50 (NCI-H524): > 10.2 µM
IC50 (SNU-16): > 10.2 µM
IC50 (SCC-3): > 10.2 µM
IC50 (SNU-C1): > 10.2 µM
IC50 (ST486): > 10.2 µM
IC50 (SUP-T1): 7.48 µM
IC50 (BC1 cell line): 9.11 µM
IC50 (BC-3): > 10.2 µM

CCNc1cc(N[C@H]2CC[C@@H](O)CC2)nc(Nc2ccc3c(ccn3Cc3ccccc3)c2)n1
IC50 (EVSA-T): > 5.12 µM
IC50 (GDM-1): > 5.12 µM
IC50 (JIYOYE): > 5.12 µM
IC50 (K052): > 5.12 µM
IC50 (L-540): > 5.12 µM
IC50 (LOUCY): > 5.12 µM
IC50 (NCCIT): > 5.12 µM
IC50 (NCI-H1522): > 5.12 µM
IC50 (NCI-H187): > 5.12 µM
IC50 (NCI-H524): > 5.12 µM
IC50 (SNU-16): > 5.12 µM
IC50 (SCC-3): > 5.12 µM
IC50 (SNU-C1): > 5.12 µM
IC50 (ST486): > 5.12 µM
IC50 (SUP-T1): > 5.12 µM
IC50 (BC1 cell line): > 5.12 µM
IC50 (BC-3): > 5.12 µM

From ChEMBL document CHEMBL1201861, “Genomics of Drug Sensitity in Cancer screening data, Wellcome Trust Sanger Institute”
